Source: patent US11453660B2, “Androgen receptor and glucocorticoid receptor modulators” (ONCOSTELLAE, S.L., priority 2017, dated 2022)
Blank lines part the entries; values can stand above or below the compound they belong to.

What was measured:
human androgen receptor = target: T1, human androgen receptor (Homo sapiens, UniProt P10275, T878A); experiment: Human Androgen Receptor Binding (radioligand binding, LnCap prostate cancer cell line); conditions: LnCap cells, displacement of [^3H]-methyltrienolone, 2 hours at 37° C.; read-out: AR LNCaP
T1 construct: endogenously expressed human androgen receptor using the LnCap prostate cancer cell line; endogenous in cells; host or cells: LNCaP prostate cancer cell line (whole cells)
T1 sequence (P10275 1-920 T878A): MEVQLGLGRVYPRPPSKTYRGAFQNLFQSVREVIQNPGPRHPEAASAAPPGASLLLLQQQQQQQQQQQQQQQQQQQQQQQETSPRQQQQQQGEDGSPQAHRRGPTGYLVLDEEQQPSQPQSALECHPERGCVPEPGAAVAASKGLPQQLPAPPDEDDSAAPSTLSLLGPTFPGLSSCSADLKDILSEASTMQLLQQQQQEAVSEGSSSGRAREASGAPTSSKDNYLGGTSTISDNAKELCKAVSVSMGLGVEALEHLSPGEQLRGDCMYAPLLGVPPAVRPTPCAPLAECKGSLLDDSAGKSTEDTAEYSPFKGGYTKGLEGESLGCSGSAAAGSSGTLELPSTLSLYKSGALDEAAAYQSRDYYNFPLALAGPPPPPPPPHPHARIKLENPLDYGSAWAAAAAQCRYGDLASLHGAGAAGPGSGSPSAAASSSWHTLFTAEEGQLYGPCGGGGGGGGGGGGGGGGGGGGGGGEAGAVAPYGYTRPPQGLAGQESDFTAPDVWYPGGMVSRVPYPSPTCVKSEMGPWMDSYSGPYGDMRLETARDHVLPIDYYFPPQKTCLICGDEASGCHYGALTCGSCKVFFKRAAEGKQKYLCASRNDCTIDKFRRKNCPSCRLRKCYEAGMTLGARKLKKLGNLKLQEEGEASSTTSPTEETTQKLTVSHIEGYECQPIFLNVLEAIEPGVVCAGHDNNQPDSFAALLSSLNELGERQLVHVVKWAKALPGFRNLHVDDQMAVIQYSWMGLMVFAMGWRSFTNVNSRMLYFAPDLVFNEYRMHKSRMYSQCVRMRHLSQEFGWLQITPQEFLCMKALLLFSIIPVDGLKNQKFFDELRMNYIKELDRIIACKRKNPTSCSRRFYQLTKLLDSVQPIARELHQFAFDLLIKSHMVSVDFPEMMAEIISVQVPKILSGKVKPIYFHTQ
Procedure, shortened: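 Whole-cell displacement of [3H]-methyltrienolone from endogenous AR (T878A) in LnCap cells, in RPMI with 0.1% BSA and triamcinolone acetonide. Compounds 10 μM to 0.1 nM in 1:10 steps, 2 h at 37 °C; cells washed, SDS-lysed, bound radioactivity by scintillation counting for IC50.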

[1] = target: T2, Human Glucocorticoid Receptor (Homo sapiens, UniProt P04150); experiment: Competition Binding in IM-9 Human Glucocorticoid Receptor (GR IM-9); conditions: cytosol from IM-9 cell line, 1.5 nM [3H]-Dexamethasone, 4° C. for 6 hours
T2 construct: endogenous in cells; host or cells: cytosol from IM-9 cell line
T2 sequence (P04150 1-777): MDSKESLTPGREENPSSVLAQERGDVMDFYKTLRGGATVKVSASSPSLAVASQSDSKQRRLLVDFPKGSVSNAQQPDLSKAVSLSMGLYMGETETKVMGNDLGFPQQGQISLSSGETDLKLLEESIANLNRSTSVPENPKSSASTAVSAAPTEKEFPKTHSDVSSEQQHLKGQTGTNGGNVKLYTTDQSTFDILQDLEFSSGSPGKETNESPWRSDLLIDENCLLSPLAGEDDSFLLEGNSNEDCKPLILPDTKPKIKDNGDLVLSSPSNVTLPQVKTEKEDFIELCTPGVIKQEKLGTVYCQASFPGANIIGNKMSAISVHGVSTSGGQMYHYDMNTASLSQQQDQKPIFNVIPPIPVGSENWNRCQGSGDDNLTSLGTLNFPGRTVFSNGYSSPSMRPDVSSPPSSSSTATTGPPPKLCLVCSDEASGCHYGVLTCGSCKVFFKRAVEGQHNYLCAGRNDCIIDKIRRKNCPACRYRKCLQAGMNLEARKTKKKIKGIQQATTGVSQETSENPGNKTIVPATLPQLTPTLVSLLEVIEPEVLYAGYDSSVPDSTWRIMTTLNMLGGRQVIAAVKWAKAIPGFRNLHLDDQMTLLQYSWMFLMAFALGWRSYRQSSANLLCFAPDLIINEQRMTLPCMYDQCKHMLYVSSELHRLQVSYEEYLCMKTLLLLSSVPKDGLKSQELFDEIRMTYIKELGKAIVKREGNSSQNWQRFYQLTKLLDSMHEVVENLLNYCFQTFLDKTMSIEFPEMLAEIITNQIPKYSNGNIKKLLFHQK
Procedure, shortened: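 Radioligand competition using 100 μg IM-9 cell cytosol and 1.5 nM [3H]-dexamethasone, incubated 6 h at 4° C in TES/molybdate buffer, pH 7.4. Filtration on PEI-treated GF/B filters, scintillation counting; nonspecific binding defined with 10 μM triamcinolone.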

Compound: CC(=O)C1=C(C)NC(N)=C(C(=O)OCC2CCCCC2)C1c1csc2c(C#N)cccc12 (stereo not drawn) [Example D30, Cyclohexylmethyl 5-acetyl-2-amino-4-(7-cyanobenzo[b]thiophen-3-yl)-6-methyl-1,4-dihydropyridine-3-carboxylate]
- IC50 (human androgen receptor): 100 to 1000 nM
- IC50 [1]: < 100 nM

Compound: CC1=C(C(=O)C2CC2)C(c2csc3c(C#N)cccc23)C(C(=O)OCC2CC2)=C(N)N1 (stereo not drawn) [Example D31, Cyclopropylmethyl 2-amino-4-(7-cyanobenzo[b]thiophen-3-yl)-5-(cyclopropanecarbonyl)-6-methyl-1,4-dihydropyridine-3-carboxylate]
- IC50 (human androgen receptor): 100 to 1000 nM
- IC50 [1]: < 100 nM

Compound: CC(=O)C1=C(C)NC(N)=C(C(=O)OCc2cccc(F)c2)C1c1csc2c(C#N)cccc12 (stereo not drawn) [Example D32, 3-Fluorobenzyl 5-acetyl-2-amino-4-(7-cyanobenzo[b]thiophen-3-yl)-6-methyl-1,4-dihydropyridine-3-carboxylate]
- IC50 (human androgen receptor): 100 to 1000 nM
- IC50 [1]: < 100 nM

Compound: COC(=O)C1=C(C)NC(N)=C(C(=O)OCC2CC2)C1c1csc2c(C#N)cc(F)cc12 (stereo not drawn) [Example D39, 3-(Cyclopropylmethyl) 5-methyl 2-amino-4-(7-cyano-5-fluorobenzo[b]thiophen-3-yl)-6-methyl-1,4-dihydropyridine-3,5-dicarboxylate]
- IC50 (human androgen receptor): 100 to 1000 nM
- IC50 [1]: < 100 nM

Compound: COC(=O)C1=C(C)NC(N)=C(C(=O)OC(C)C)C1c1csc2c(C#N)cccc12 (stereo not drawn) [Example D41, 3-Isopropyl 5-methyl 2-amino-4-(7-cyanobenzo[b]thiophen-3-yl)-6-methyl-1,4-dihydropyridine-3,5-dicarboxylate]
- IC50 (human androgen receptor): 100 to 1000 nM
- IC50 [1]: < 100 nM

Compound: COC(=O)C1=C(C)NC(N)=C(C(=O)OCC(C)(C)C)C1c1csc2c(C#N)cccc12 (stereo not drawn) [Example D43, 5-Methyl 3-neopentyl 2-amino-4-(7-cyanobenzo[b]thiophen-3-yl)-6-methyl-1,4-dihydropyridine-3,5-dicarboxylate]
- IC50 (human androgen receptor): 100 to 1000 nM
- IC50 [1]: < 100 nM

Compound: CC1=C(C(=O)OCC2CC2)C(c2csc3c(C#N)cccc23)C(C(=O)OCC2CC2)=C(N)N1 (stereo not drawn) [Example D46, Bis(cyclopropylmethyl) 2-amino-4-(7-cyanobenzo[b]thiophen-3-yl)-6-methyl-1,4-dihydropyridine-3,5-dicarboxylate]
- IC50 (human androgen receptor): ≥ 1000 nM
- IC50 [1]: < 100 nM

Compound: COC(=O)C1=C(C2CC2)NC(C)=C(C(C)=O)C1c1csc2ncccc12 (stereo not drawn) [Example J23, Methyl 5-acetyl-2-cyclopropyl-6-methyl-4-(thieno[2,3-b]pyridin-3-yl)-1,4-dihydropyridine-3-carboxylate]
- IC50 (human androgen receptor): < 100 nM
- IC50 [1]: 100 to 1000 nM

Compound: CC(=O)C1=C(C)NC(C2CC2)=C(C(=O)OCc2ccncc2)C1c1csc2c(Br)cccc12 (stereo not drawn) [Example J41, Pyridin-4-ylmethyl 5-acetyl-4-(7-bromobenzo[b]thiophen-3-yl)-2-cyclopropyl-6-methyl-1,4-dihydropyridine-3-carboxylate]
- IC50 (human androgen receptor): < 100 nM
- IC50 [1]: < 100 nM

Compound: CC(=O)C1=C(C)NC(C)=C(C(=O)OCc2ccc(-c3ccncc3)cc2)C1c1csc2ncccc12 (stereo not drawn) [Example L1, 4-(pyridin-4-yl)benzyl 5-acetyl-2,6-dimethyl-4-(thieno[2,3-b]pyridin-3-yl)-1,4 dihydropyridine-3-carboxylate]
- IC50 (human androgen receptor): ≥ 1000 nM
- IC50 [1]: < 100 nM

Compound: CC(=O)C1=C(C)NC(C)=C(C(=O)OCc2cccc(-c3ccncc3)c2)C1c1csc2ncccc12 (stereo not drawn) [Example L3, 3-(pyridin-4-yl)benzyl 5-acetyl-2,6-dimethyl-4-(thieno[2,3-b]pyridin-3-yl)-1,4-dihydropyridine-3-carboxylate]
- IC50 (human androgen receptor): < 100 nM
- IC50 [1]: < 100 nM

Compound: CC(=O)C1=C(C)NC(C)=C(C(=O)OCc2cccc(-c3cccnc3)c2)C1c1csc2ncccc12 (stereo not drawn) [Example L4, 3-(pyridin-3-yl)benzyl 5-acetyl-2,6-dimethyl-4-(thieno[2,3-b]pyridin-3-yl)-1,4-dihydropyridine-3-carboxylate]
- IC50 (human androgen receptor): < 100 nM
- IC50 [1]: < 100 nM

Now from value to compound:

- IC50 (human androgen receptor): 100 to 1000 nM
- IC50 [1]: < 100 nM
Compound: COC(=O)C1=C(C)NC(N)=C(C(=O)OC2CCCC2)C1c1csc2c(C#N)cccc12 (stereo not drawn) [Example D27, 3-Cyclopentyl 5-methyl 2-amino-4-(7-cyanobenzo[b]thiophen-3-yl)-6-methyl-1,4-dihydropyridine-3,5-dicarboxylate]

- IC50 (human androgen receptor): 100 to 1000 nM
- IC50 [1]: < 100 nM
Compound: CC1=C(C(=O)OC2CC2)C(c2csc3c(C#N)cccc23)C(C(=O)OCC2CC2)=C(N)N1 (stereo not drawn) [Example D37, 5-Cyclopropyl 3-(cyclopropylmethyl) 2-amino-4-(7-cyanobenzo[b]thiophen-3-yl)-6-methyl-1,4-dihydropyridine-3,5-dicarboxylate]

- IC50 (human androgen receptor): 100 to 1000 nM
- IC50 [1]: < 100 nM
Compound: C#CCOC(=O)C1=C(C)NC(N)=C(C(=O)OCC2CC2)C1c1csc2c(C#N)cccc12 (stereo not drawn) [Example D47, 3-(Cyclopropylmethyl) 5-(prop-2-yn-1-yl) 2-amino-4-(7-cyanobenzo[b]thiophen-3-yl)-6-methyl-1,4-dihydropyridine-3,5-dicarboxylate]

- IC50 (human androgen receptor): < 100 nM
- IC50 [1]: < 100 nM
Compound: COC(=O)C1=C(C2CC2)NC(C)=C(C(C)=O)C1c1csc2c(Br)cccc12 (stereo not drawn) [Example J26, Methyl 5-acetyl-4-(7-bromobenzo[b]thiophen-3-yl)-2-cyclopropyl-6-methyl-1,4-dihydropyridine-3-carboxylate]

- IC50 (human androgen receptor): 100 to 1000 nM
- IC50 [1]: < 100 nM
Compound: CC(=O)C1=C(C)NC(C2CC2)=C(C(=O)OCc2ccc(F)cc2)C1c1csc2ncccc12 (stereo not drawn) [Example J42, 4-fluorobenzyl 5-acetyl-2-cyclopropyl-6-methyl-4-(thieno[2,3-b]pyridin-3-yl)-1,4-dihydropyridine-3-carboxylate]

- IC50 (human androgen receptor): ≥ 1000 nM
- IC50 [1]: < 100 nM
Compound: CC(=O)C1=C(C)NC(C)=C(C(=O)OCc2ccc(-c3cccnc3)cc2)C1c1csc2ncccc12 (stereo not drawn) [Example L2, 4-(pyridin-3-yl)benzyl 5-acetyl-2,6-dimethyl-4-(thieno[2,3-b]pyridin-3-yl)-1,4-dihydropyridine-3-carboxylate]
